Molecules are shown by their SMILES.

Experiment [1] has as its target T1, 5-HT1D (Homo sapiens, UniProt P28221).
T1 construct: host or cells: membrane preparations
The experiment is described as follows: 5-HT1D receptor binding. To be noted: read-out: Serotonin Receptor Binding 5-HT1D (IC50). The method, then:
(§1) Dopamine and serotonin receptor binding assays were performed in a standard manner with the incubation of membrane preparations in an assay buffer in the presence of a known radioactively labeled specific ligand for the receptor subtypes. Nonspecific binding was determined by assessing binding in the presence of excess ligand. Specific binding was measured as the total labeled ligand bound after the nonspecific binding was subtracted. The effect of the tested agents was measured by determining the competition for the receptor binding across a concentration range. Subsequently, an IC50 was determined for the agents tested. More specific details are provided below for several of the assays performed.

The target of experiment [2] is T2, 5-HT2B (Homo sapiens, UniProt P41595).
T2 construct: host or cells: membrane preparations
T2 sequence (P41595 whole entry, species assumed): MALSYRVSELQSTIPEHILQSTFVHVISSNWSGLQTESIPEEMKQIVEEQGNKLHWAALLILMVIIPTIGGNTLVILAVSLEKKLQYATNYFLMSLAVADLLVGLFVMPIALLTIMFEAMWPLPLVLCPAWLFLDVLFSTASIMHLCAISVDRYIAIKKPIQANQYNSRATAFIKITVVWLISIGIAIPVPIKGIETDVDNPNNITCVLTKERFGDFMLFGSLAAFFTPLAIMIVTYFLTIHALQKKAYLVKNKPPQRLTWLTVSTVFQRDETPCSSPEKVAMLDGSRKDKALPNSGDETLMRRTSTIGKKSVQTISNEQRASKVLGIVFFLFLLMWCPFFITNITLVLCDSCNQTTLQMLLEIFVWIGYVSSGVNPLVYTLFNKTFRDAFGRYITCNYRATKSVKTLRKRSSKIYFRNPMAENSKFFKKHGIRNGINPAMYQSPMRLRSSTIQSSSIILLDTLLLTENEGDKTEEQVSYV
The experiment is described as follows: 5-HT2B receptor binding. To be noted: read-out: Serotonin Receptor Binding 5-HT2B (IC50). The method, then:
as §1

The target in experiment [3] is T3, Human D2 receptor (Homo sapiens, UniProt P14416).
T3 construct: expressed in transfected cells; host or cells: A9L cells
T3 sequence (P14416 whole entry): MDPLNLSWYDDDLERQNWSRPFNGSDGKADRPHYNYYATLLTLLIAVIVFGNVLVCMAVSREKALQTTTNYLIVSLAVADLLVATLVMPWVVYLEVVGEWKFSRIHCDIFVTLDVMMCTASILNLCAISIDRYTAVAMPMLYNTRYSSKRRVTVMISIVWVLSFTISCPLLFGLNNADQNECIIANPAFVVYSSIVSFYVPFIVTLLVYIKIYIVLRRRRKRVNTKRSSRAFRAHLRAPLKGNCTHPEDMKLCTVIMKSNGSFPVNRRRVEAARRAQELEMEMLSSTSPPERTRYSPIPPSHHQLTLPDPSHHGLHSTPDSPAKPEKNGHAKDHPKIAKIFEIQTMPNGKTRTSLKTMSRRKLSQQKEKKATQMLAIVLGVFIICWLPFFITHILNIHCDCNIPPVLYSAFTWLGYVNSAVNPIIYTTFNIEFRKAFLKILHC
Kind of experiment: Dopamine D2 receptor binding. As to conditions: [3H]spiperone, transfected A9L cell membranes. As for the experimental part:
as §1
(§2) Aliquots of transfected A9L cell membrane preparations corresponding to 20-40 μg protein are incubated for 60 min at 22° C. in 250 μl of 50 mM Tris-HCl buffer (pH 7.4) containing 120 mM NaCl, 5 mM KCl, 5 mM MgCl2, 1 mM EDTA, 0.3 nM [^3H]spiperone and increasing concentrations of the competing drugs. Nonspecific binding is determined in the presence of 10 μM (+)butaclamol. After incubation, the samples are filtered rapidly under vacuum through glass fiber filters (GF/B, Packard) and rinsed several times with ice-cold 50 mM Tris-HCl using a cell harvester (Packard). Bound radioactivity is measured with a scintillation counter (Topcount, Packard) using a liquid scintillation cocktail (Microscint 0, Packard). The reference compound for this assay is (+)butaclamol.

The target of experiment [4] is T4, D1 (Homo sapiens, UniProt P21728).
T4 construct: host or cells: membrane preparations
T4 sequence (P21728 whole entry): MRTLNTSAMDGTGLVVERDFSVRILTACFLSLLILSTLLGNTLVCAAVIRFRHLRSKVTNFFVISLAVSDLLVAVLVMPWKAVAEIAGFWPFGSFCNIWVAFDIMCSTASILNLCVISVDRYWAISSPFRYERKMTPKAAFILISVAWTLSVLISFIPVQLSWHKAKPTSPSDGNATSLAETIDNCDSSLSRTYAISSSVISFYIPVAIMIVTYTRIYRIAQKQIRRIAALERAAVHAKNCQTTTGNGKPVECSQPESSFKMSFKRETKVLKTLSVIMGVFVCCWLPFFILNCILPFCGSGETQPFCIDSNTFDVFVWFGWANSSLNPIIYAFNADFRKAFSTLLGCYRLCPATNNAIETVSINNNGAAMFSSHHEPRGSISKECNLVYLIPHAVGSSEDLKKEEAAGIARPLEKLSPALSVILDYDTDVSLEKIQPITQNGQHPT
Kind of experiment: Dopamine D1 receptor binding. The method, then:
as §1

Experiment [5] concerns the target T5, 5-HT5A (Homo sapiens, UniProt P47898).
T5 construct: host or cells: membrane preparations
The experiment is described as follows: 5-HT5A receptor binding. To be noted: read-out: Serotonin Receptor Binding 5-HT5A (IC50). The method, then:
as §1

The target in experiment [6] is T6, Human 5-HT2A receptor (Homo sapiens, UniProt P28223).
T6 construct: expressed in transfected cells; host or cells: CHO cells
T6 sequence (P28223 whole entry): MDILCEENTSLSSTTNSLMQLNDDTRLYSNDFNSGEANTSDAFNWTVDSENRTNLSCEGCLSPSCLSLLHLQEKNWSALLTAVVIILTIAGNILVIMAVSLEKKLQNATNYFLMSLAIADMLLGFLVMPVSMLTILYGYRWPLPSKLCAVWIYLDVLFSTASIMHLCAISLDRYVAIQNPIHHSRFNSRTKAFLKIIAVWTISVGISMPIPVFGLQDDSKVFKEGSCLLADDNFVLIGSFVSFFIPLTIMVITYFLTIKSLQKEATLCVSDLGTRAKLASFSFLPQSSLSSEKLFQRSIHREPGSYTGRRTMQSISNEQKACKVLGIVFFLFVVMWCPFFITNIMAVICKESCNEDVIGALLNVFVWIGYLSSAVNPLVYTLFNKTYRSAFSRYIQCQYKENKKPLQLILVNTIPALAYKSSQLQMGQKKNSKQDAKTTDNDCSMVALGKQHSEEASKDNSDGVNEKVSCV
The experiment is described as follows: 5-HT2A receptor binding. To be noted: [3H]ketanserin, transfected CHO cell membranes; read-out: Serotonin Receptor Binding 5-HT2A (IC50). The method, then: as §1
Aliquots of transfected CHO cell membrane preparations corresponding to 20-50 μg protein are incubated for 15 min at 37° C. in 250 μl of 50 mM Tris-HCl buffer (pH 7.4) containing 2 nM [^3H]ketanserin and increasing concentrations of the competing drugs. Nonspecific binding is determined in the presence of 1 μM ketanserin. After incubation, the samples are filtered rapidly under vacuum through glass fiber filters (GF/B, Packard) and rinsed several times with ice-cold 50 mM Tris-HCl using a cell harvester (Packard). Bound radioactivity is measured with a scintillation counter (Topcount, Packard) using a liquid scintillation cocktail (Microscint 0, Packard).
The reference compound for this assay is ketanserin.

Experiment [7] has as its target T7, 5-HT6 (Homo sapiens, UniProt P50406).
T7 construct: host or cells: membrane preparations
The experiment is described as follows: 5-HT6 receptor binding. As to conditions: read-out: Serotonin Receptor Binding 5-HT6 (IC50). The method, then: as §1

The target in experiment [8] is T8, 5-HT1A receptors (Homo sapiens, UniProt P08908).
T8 sequence (P08908 1-422): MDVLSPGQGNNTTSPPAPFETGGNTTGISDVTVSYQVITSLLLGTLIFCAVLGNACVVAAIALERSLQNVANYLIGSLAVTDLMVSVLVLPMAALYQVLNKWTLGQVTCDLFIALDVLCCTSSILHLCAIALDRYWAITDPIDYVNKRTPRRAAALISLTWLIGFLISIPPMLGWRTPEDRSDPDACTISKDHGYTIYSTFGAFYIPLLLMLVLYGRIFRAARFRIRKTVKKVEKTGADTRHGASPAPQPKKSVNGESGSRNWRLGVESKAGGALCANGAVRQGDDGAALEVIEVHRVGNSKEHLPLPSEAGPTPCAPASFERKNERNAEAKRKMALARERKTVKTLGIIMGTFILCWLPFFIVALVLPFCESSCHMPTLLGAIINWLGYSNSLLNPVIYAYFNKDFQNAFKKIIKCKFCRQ
The experiment is described as follows: 5-HT1A receptor binding. Also on record: expressed in transfected cells; host or cells: CHO cells. To be noted: [3H]8-OH-DPAT, transfected CHO cell membranes; read-out: Serotonin Receptor Binding 5-HT1A (IC50). The method, then: as §1
as §2, with “CHO” for “A9L”, “7-15” for “20-40”, “10” for “120”, “MgSO4, 0.5” for “NaCl, 5 mM KCl, 5 mM MgCl2, 1”, “[^3H]8-OH-DPAT” for “[^3H]spiperone”, “8-OH-DPAT.” for “(+)butaclamol.”

For experiment [9], the target named is T9, 5-HT1B (Homo sapiens, UniProt P28222).
T9 construct: host or cells: membrane preparations
T9 sequence (P28222 whole entry, species assumed): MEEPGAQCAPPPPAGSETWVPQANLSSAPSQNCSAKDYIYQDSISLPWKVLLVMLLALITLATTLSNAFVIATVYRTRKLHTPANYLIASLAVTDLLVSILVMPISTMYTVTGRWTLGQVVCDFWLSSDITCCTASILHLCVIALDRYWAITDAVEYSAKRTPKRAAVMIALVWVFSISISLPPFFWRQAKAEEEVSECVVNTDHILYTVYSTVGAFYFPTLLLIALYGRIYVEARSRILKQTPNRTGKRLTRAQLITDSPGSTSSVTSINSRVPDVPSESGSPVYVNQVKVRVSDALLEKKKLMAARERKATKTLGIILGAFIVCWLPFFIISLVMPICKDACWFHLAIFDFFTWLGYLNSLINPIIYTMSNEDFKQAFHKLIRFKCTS
Kind of experiment: 5-HT1B receptor binding. To be noted: read-out: Serotonin Receptor Binding 5-HT1B (IC50). As for the experimental part:
as §1

In experiment [10] the target is T10, serotonin uptake by rat cortex synaptosomes (Rattus norvegicus, UniProt P31652).
T10 construct: from tissue; host or cells: male Wistar rat cortex synaptosomes
T10 sequence (P31652 whole entry): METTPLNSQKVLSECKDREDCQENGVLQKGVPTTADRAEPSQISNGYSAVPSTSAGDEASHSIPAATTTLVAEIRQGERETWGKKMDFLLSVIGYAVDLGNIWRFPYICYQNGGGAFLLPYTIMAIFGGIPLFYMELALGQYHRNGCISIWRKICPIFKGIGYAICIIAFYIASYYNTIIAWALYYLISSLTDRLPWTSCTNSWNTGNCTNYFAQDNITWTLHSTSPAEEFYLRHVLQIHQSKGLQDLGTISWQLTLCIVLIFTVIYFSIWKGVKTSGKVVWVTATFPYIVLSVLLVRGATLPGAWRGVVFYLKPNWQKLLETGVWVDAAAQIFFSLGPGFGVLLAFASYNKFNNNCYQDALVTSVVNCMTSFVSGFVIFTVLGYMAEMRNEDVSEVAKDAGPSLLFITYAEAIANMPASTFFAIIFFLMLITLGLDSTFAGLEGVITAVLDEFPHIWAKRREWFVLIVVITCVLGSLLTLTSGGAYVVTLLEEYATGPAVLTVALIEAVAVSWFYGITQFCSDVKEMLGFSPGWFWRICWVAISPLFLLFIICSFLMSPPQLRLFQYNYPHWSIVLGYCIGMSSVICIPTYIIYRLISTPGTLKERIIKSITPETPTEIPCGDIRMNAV
Kind of experiment: Serotonin uptake functional assay. Type of experiment: biochemical. To be noted: [3H]5-hydroxytryptamin, read-out: Monoamine Neuronal Transport 5-HT Uptake (IC50). As for the experimental part: Serotonin uptake functional assay
Characterization of serotonin uptake is performed using synaptosomes isolated in a 0.32 M sucrose buffer from a male Wistar rat cortex. The uptake of radiolabelled serotonin by synaptosomes (100 μg of proteins/point) is allowed by incubating them for 15 minutes at 37° C. in presence of test compounds and [3H]5-hydroxytryptamin (0.1 μCi/point). The experiment is performed in a deep well.
Synaptosomes and [3H]5-hydroxytryptamin are prepared in a Krebs buffer pH 7.4 containing 25 mM NaHCO3, 11 mM glucose and 50 μM ascorbic acid. This incubation buffer is oxygenated during 5 minutes before incubation. Basal control is incubated for 15 minutes at 4° C. in order to avoid any uptake. Following this incubation the uptake is stopped by filtration through an “unifilter 96-wells GF”Packard plate washed with Krebs buffer containing 25 mM NaHCO3 in order to eliminate the free [3H]5-hydroxytryptamin. The radioactivity associated to the synaptosomes retained onto the unifilter corresponding to the uptake is then measured with a microplate scintillation counter Topcount, Packard using a scintillation liquid microscint 0, Packard.
[See Perovics and Müiller “Pharmacological profile of hypericum extract: effect on serotonin uptake by postsynaptic receptors”, Arzeim Forsch/Drug Res. 45 1145-1148 (1995).]

T1 sequence (P28221 whole entry, species assumed): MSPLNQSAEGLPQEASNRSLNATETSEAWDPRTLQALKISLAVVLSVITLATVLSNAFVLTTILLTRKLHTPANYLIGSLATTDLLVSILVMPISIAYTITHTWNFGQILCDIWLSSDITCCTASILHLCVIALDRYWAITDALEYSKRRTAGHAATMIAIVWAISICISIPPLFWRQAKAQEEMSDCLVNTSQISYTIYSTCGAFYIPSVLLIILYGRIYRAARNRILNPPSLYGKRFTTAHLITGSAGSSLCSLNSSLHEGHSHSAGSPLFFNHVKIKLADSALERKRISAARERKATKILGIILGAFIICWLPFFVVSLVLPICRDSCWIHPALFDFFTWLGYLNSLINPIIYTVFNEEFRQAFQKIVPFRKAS
T5 sequence (P47898 whole entry, species assumed): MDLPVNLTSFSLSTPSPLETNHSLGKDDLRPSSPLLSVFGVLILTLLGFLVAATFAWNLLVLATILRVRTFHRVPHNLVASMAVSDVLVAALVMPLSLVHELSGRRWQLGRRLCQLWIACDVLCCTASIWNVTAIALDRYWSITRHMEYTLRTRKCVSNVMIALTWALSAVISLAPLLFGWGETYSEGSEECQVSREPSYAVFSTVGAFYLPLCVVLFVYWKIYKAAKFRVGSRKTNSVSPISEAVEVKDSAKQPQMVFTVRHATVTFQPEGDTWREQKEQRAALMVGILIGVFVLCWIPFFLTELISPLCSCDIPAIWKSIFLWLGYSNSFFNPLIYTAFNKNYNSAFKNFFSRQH
T7 sequence (P50406 whole entry, species assumed): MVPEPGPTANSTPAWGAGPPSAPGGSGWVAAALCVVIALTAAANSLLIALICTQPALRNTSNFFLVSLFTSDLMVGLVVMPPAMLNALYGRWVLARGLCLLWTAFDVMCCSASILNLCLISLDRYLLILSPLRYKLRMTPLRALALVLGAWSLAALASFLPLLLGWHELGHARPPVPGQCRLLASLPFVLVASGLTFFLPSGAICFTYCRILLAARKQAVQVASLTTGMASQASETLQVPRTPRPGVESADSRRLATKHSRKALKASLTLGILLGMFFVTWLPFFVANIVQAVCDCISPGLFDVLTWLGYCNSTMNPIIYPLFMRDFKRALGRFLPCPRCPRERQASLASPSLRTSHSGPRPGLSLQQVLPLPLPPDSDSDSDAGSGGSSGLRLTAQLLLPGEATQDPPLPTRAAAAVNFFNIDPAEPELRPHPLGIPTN

What is called IC50 is the concentration that gives 50% inhibition. As to `CC(O)c1nn(CCCN2CCN(c3cccc(Cl)c3)CC2)c(=O)n1CCOc1ccccc1` (racemic) [(RS)-OH, 2-[3-[4-(3-chlorophenyl)1-piperazinyl]propyl]-5-(1-hydroxyethyl)-2,4-dihydro-4-(phenoxyethyl)-3H-1,2,4-triazol-3-one, reference compound], the IC50 in experiment [1] was 1150 nM; in experiment [2] it was 34 nM; in [3], 1420 nM; in experiment [4], 2270 nM; in experiment [5], 2230 nM; in experiment [6], 20 nM. For the same compound, the IC50 in experiment [7] worked out at 856 nM; in [8], 409 nM; in experiment [9] it was 4550 nM; in experiment [10], 500 nM.
Regarding `C[C@@H](O)c1nn(CCCN2CCN(c3cccc(Cl)c3)CC2)c(=O)n1CCOc1ccccc1` [(R)-OH, (R)-hydroxynefazodone], the IC50 turned out to be 1990 nM in experiment [1]; 28 nM in [2]; 1690 nM in experiment [3]; 1690 nM in [4]; 2040 nM in experiment [5]; 22 nM in [6]. Moreover, the IC50 in [7] worked out at 1020 nM; in [8], 496 nM; in experiment [9] it was 3610 nM; in [10], 640 nM.
As for `C[C@H](O)c1nn(CCCN2CCN(c3cccc(Cl)c3)CC2)c(=O)n1CCOc1ccccc1` [(S)-OH, (S)-2-{3-[4-(3-Chlorophenyl)-1-piperazinyl]propyl}-4-(2-phenoxyethyl)-5-[1-(hydroxy)-ethyl]-2,4-dihydro-[1,2,4]triazol-3-one], the IC50 in experiment [1] worked out at 234 nM; in experiment [2], 41 nM; in experiment [3] it was 788 nM; in experiment [4], 2310 nM; in experiment [5], 1970 nM; in experiment [6], 18 nM. Moreover, the IC50 in experiment [7] was found to be 489 nM; in experiment [8], 249 nM; in experiment [9] it was 2840 nM; in experiment [10], 790 nM.

The values are drawn from patent US6469008B2, “(R)-hydroxynefazodone antipsychotic therapy” (Sepracor Inc., priority 1999, dated 2002).
